Measured values published in patent publication US20220235043A1, “SUBSTITUTED SULFONAMIDE PYRROLOPYRIDINES AS JAK INHIBITORS” (ACLARIS THERAPEUTICS, INC., priority 2019, published 2022).

Tests used:
JAK1 = target: T1, JAK1 (Homo sapiens, UniProt P23458); test: JAK1 enzyme activity assay (Thermo Fisher Selectscreen, Z-lyte); type: biochemical; details: read-out: JAK1 Inhibition IC50
T1 construct: purchased Thermo Fisher Scientific (SelectScreen service)
Description: (§1) The inhibitory potency of candidate compounds of JAK1, JAK2, and Tyk-2 was done at Thermo Fisher Scientific in their Selectscreen using a Z-lyte assay. Following are the assay details for each enzyme.
JAK1: The 2×JAK-enzyme/Tyr 06 mixture is prepared in 50 mM HEPES pH 6.5, 0.01% BRIJ-35, 10 mM MgCl2, 1 mM EGTA, 0.02% NaN3. The final 10 μL of the Kinase Reaction consists of 21.2-91.5 ng JAK1 and 2 μM Tyr 06 in 50 mM HEPES pH 7.0, 0.01% BRIJ-35, 10 mM MgCl2, 1 mM EGTA, 0.01% NaN3. After the one hour Kinase Reaction incubation, 5 μL of a 1:128 dilution of Development Reagent is added.
(§2) Data reduction for JAK1, JAK2 and TYK2 is done the same, independent of the enzyme run. In summary, background signal is defined in the absence of enzyme and uninhibited signal is defined in the presence of vehicle (2% DMSO) alone. Compounds were evaluated in an 11 point dose-response ranging from […] to 0.34 nM. IC50 values of compounds are determined using a 4 parameter logistical fit of emission ratio as a function of the concentration of compound.

[1] = tested on: IFNγ stimulated STAT1 phosphorylation on Tyr701 (JAK1/2); test: JAK1/2 cellular target modulation: IFNγ stimulated phospho-STAT1 in human PBMC; type: cell-based; details: IFNγ 10 ng/ml, read-out: Infγ-STAT1 IC50
Description: (§3) Target modulation was based upon the ability of a compound to inhibit JAK isoform specific phosphorylation of selected substrates. IL-2 stimulated STAT5 phosphorylation on Tyr694 was used to assess JAK1/3 compound selectivity. GM-CSF stimulated STAT5 phosphorylation on Tyr694 was used to assess JAK2 compound selectivity. IFNγ stimulated STAT1 phosphorylation on Tyr701 was used to assess JAK1/2 compound selectivity. IL-12 stimulated STAT4 phosphorylation on Tyr693 was used to assess JAK2/TYK2 compound selectivity. For all four assays, human PBMC from frozen stocks were thawed, pelleted, resuspended in complete media (90% RPMI, 10% heat inactivated FBS, 10 mM HEPES, 47 μM 2-ME, pen/strep) and placed in wells of a 96 well V-bottom plate at 200,000 per well in 120 μl complete media. Compounds were added as 15 μl per well of 10× working stock solutions in complete media with 1% DMSO (or medium with 1% DMSO for controls) and placed on a plate shaker in a 37° C. incubator with 5% CO2 for 1 hour with gentle shaking (setting of 3). Stimulation used the addition of soluble cytokines. For the JAK1/3 phospho-STAT5 assay, 15 μl of 10× working stock recombinant human IL-2 was added to a final concentration of 25 ng/ml. For the JAK2 phospho-STAT5 assay, 15 μl of 10× working stock recombinant human GM-CSF was added to a final concentration of 5 ng/ml. For the JAK1/2 phospho-STAT1 assay, 15 μl of 10× working stock of recombinant human IFNγ was added to a final concentration of 10 ng/ml. For the JAK2/TYK2 phospho-STAT4 assay, 15 μl of 10× working stock of recombinant human IL-12 was added to a final concentration of 1.7 ng/ml. Plates were then placed back on the plate shaker in the incubator for an additional 5, 5, 10, and 25 minutes respectively upon which the plates were removed from the incubator, sealed with a plate sealer and the cells pelleted at 400×g for 5 minutes. After pelleting, the media was removed by aspiration and the cells were lysed in assay specific cell lysis buffer. The levels of phospho-STAT5 were determined using a Phospho (Tyr694)STAT5a,b Whole Cell Lysate kit from Meso Scale Discovery. Levels of phospho-STAT1 were determined using a CST-PathScan Phospho-STAT1 (Tyr701) Sandwich ELISA kit. Levels of phospho-STAT4 were determined using a Phospho-STAT4 (Tyr693) Whole Cell Lysate kit from Meso Scale Discovery.

JAK2 = target: T2, JAK2 (Homo sapiens, UniProt O60674); test: JAK2 enzyme activity assay (Thermo Fisher Selectscreen, Z-lyte); type: biochemical; details: read-out: JAK2 Inhibition IC50
T2 construct: purchased Thermo Fisher Scientific (SelectScreen service)
T2 sequence (O60674 whole entry): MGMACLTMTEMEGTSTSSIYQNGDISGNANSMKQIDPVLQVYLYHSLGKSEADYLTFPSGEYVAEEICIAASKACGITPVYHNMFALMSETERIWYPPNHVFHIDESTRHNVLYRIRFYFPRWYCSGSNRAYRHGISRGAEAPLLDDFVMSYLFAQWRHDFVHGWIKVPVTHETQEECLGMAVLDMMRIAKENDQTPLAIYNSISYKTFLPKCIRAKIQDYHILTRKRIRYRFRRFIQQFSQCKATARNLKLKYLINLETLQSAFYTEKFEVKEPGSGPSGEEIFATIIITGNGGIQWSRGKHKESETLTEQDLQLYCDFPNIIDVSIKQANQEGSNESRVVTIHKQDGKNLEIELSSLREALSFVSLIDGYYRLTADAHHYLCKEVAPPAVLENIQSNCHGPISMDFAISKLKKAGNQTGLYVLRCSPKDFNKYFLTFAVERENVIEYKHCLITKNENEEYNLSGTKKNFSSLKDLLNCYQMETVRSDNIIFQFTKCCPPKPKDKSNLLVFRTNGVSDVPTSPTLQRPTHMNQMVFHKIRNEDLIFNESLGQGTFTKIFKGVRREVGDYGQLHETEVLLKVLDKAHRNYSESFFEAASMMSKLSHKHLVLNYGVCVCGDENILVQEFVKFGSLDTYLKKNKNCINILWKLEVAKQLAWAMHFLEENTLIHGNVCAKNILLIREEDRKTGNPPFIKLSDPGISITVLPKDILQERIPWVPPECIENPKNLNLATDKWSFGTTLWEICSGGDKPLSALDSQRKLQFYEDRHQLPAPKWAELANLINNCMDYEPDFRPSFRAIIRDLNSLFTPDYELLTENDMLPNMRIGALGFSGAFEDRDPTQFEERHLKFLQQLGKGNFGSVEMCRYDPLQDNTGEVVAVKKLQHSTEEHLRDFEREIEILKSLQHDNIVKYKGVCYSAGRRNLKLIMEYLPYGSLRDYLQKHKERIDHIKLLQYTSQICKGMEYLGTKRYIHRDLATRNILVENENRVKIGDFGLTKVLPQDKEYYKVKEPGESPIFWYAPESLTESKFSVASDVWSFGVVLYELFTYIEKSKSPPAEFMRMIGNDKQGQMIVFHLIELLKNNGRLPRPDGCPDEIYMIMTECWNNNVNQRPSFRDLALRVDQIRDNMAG
Description: as §1
JAK2: The 2×JAK2/Tyr 06 mixture is prepared in 50 mM HEPES pH 7.5, 0.01% BRIJ-35, 10 mM MgCl2, 1 mM EGTA. The final 10 μL Kinase Reaction consists of 0.12-0.5 ng JAK2 and 2 μM Tyr 06 in 50 mM HEPES pH 7.5, 0.01% BRIJ-35, 10 mM MgCl2, 1 mM EGTA. After the one hour Kinase Reaction incubation, 5 μL of a 1:128 dilution of Development Reagent A is added.
as §2

JAK3 (a.a. 781-1124) = target: T3, JAK3 (a.a. 781-1124) (Homo sapiens, UniProt P52333); test: JAK3 enzyme activity assay (SRCtide phosphorylation, Caliper); type: biochemical; details: 1 uM ATP; read-out: JAK3 Inhibition IC50
T3 construct: JAK3 (a.a. 781-1124, ThermoFisher); purchased ThermoFisher
T3 sequence (P52333 781-1124): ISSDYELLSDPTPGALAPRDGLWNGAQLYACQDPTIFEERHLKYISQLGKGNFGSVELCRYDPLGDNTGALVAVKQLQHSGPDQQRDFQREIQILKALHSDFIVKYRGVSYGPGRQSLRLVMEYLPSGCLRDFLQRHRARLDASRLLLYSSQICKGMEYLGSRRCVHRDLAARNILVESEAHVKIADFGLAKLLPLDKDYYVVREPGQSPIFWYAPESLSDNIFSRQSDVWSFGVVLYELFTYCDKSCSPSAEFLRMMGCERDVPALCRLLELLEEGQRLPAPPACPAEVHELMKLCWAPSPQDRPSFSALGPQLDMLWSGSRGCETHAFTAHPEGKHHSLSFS
Description: The activity of JAK3 (a.a. 781-1124, ThermoFisher) was quantified by measuring the phosphorylation of SRCtide (FAM-GEEPLYWSFPAKKK-NH2). Kinase reactions were run in a 384-well Greiner plate with 2% final DMSO concentration under the buffer conditions of 20 mM HEPES, pH 7.5, 10 mM MgCl2, 0.01% BSA, and 0.0005% Tween-20. The kinase reaction components were 2.5 nM JAK3, 1 μM SRCtide peptide and 1 uM ATP. Examples were tested in dose-response starting at […] (11 concentrations, 3-fold serial dilution, duplicate reactions). The reactions were incubated at room temperature for 40 minutes, then stopped by adding a 1:1 volume of 30 mM EDTA in 20 mM HEPES, pH 7.5 (15 mM EDTA final). After the reaction was stopped, the phosphorylated and unphosphorylated peptides were separated and quantified using a Caliper LC3000/EZ-Reader system and HTS Well Analyzer Software (Caliper, A PerkinElmer Company, Hopkinton, Mass.). GraFit (Erithacus Software Ltd., Horley, U.K.) was used to calculate inhibitor potency by fitting dose-response data to the 4-parameter logistical IC50 equation.

[2] = tested on: IL-12 stimulated STAT4 phosphorylation on Tyr693 (JAK2/TYK2); test: JAK2/TYK2 cellular target modulation: IL-12 stimulated phospho-STAT4 in human PBMC; type: cell-based; details: IL-12 1.7 ng/ml, read-out: IL12-STAT4 IC50
Description: as §3

[3] = tested on: IL-2 stimulated STAT5 phosphorylation on Tyr694 (JAK1/3); test: JAK1/3 cellular target modulation: IL-2 stimulated phospho-STAT5 in human PBMC; type: cell-based; details: IL-2 25 ng/ml, read-out: IL2-STAT5 IC50
Description: as §3

Tyk-2 = target: T4, Tyk-2 (Homo sapiens, UniProt P29597); test: Tyk-2 enzyme activity assay (Thermo Fisher Selectscreen, Z-lyte); type: biochemical; details: read-out: Tyk-2 Inhibition IC50
T4 construct: purchased Thermo Fisher Scientific (SelectScreen service)
T4 sequence (P29597 whole entry): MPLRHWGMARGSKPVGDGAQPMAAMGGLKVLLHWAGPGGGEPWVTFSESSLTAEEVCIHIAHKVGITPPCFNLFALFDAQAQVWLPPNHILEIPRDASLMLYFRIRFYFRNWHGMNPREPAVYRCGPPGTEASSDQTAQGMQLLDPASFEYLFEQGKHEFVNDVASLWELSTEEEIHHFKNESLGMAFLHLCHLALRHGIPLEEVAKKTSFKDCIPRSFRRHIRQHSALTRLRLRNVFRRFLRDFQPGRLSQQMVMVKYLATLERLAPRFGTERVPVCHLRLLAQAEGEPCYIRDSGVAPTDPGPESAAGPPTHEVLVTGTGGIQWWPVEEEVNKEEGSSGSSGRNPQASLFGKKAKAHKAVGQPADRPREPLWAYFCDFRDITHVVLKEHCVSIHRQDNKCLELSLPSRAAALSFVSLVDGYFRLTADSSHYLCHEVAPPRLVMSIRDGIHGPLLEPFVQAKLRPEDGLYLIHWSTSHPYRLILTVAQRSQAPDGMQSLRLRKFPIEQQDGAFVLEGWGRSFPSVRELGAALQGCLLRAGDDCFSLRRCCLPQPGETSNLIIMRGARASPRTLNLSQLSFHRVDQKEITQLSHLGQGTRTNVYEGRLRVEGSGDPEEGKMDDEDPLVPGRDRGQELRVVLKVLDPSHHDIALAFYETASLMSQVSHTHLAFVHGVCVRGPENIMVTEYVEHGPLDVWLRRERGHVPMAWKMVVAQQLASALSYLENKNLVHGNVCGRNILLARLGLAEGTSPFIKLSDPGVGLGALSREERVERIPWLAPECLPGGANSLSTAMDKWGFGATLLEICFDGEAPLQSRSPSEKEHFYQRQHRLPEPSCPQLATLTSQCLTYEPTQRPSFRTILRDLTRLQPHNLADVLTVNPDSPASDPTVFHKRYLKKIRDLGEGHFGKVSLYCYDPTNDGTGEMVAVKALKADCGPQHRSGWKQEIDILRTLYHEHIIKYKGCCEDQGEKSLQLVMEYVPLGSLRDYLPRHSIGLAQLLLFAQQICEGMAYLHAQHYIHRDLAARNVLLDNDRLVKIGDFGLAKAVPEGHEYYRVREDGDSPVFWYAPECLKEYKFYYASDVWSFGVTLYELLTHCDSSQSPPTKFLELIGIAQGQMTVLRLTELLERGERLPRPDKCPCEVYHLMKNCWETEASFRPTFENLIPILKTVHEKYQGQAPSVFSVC
Description: as §1
TYK2: The 2×TYK2/Tyr 03 mixture is prepared in 50 mM HEPES pH 6.5, 0.01% BRIJ-35, 10 mM MgCl2, 1 mM EGTA, 0.02% NaN3. The final 10 μL Kinase Reaction consists of 3.75-15 ng TYK2 and 2 μM Tyr 03 in 50 mM HEPES pH 7.0, 0.01% BRIJ-35, 10 mM MgCl2, 1 mM EGTA, 0.01% NaN3. After the one hour KinaseReaction incubation, 5 μL of a 1:4096 dilution of Development Reagent A is added.
as §2

T1 sequence (P23458 whole entry): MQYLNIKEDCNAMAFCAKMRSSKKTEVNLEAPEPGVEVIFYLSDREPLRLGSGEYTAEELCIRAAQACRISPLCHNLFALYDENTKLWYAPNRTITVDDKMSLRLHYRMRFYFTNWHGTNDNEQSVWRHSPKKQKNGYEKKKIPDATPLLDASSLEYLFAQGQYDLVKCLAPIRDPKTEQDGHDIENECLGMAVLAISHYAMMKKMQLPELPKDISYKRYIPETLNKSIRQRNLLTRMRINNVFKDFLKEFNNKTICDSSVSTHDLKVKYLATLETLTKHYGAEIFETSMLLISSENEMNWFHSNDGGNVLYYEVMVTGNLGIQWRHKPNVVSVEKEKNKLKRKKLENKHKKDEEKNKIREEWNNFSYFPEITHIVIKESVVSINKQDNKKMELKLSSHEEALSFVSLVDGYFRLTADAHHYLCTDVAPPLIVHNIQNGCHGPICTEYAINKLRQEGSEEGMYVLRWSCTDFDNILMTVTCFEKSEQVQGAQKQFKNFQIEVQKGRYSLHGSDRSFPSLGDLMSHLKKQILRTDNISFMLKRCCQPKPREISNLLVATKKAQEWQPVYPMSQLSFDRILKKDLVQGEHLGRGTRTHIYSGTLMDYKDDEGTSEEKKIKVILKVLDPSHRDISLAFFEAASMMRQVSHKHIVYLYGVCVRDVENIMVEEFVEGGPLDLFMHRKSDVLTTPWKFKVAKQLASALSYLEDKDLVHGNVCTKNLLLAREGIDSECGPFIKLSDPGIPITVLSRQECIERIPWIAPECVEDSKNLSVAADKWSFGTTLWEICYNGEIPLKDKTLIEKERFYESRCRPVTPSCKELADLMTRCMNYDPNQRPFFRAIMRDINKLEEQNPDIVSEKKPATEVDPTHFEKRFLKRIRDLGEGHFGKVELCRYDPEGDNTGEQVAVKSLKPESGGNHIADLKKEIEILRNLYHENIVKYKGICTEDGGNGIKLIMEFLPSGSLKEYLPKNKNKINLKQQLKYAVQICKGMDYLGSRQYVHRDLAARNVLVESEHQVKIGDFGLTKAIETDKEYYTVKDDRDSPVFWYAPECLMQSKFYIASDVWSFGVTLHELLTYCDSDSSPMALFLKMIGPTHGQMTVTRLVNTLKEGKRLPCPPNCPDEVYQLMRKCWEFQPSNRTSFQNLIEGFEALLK

SMILES	IC50 (JAK1)	IC50 [1]	IC50 (JAK2)	IC50 (JAK3 (a.a. 781-1124))	IC50 [2]	IC50 [3]	IC50 (Tyk-2)
N#Cc1cccc(S(=O)(=O)N[C@H]2C[C@@H](Nc3c(-c4nnco4)cnc4[nH]ccc34)C2)c1 [Example 79, N-((1s,3s)-3-((5-(1,3,4-oxadiazol-2-yl)-1H-pyrrolo[2,3-b]pyridin-4-yl)amino)cyclobutyl)-3-cyanobenzenesulfonamide]	≤ 10 nM	100 to 1000 nM	≤ 10 nM	10 to 100 nM	> 1000 nM	100 to 1000 nM	10 to 100 nM
Cc1nnc(-c2cnc3[nH]ccc3c2N[C@H]2C[C@@H](NS(=O)(=O)c3cccc(C#N)c3)C2)o1 [Example 81, 3-cyano-N-((1s,3s)-3-((5-(5-methyl-1,3,4-oxadiazol-2-yl)-1H-pyrrolo[2,3-b]pyridin-4-yl)amino)cyclobutyl)benzenesulfonamide]	≤ 10 nM	100 to 1000 nM	≤ 10 nM	10 to 100 nM	> 1000 nM	≤ 100 nM	10 to 100 nM
CCCS(=O)(=O)N[C@H]1C[C@@H](Nc2c(-c3nnc(C)o3)cnc3[nH]ccc23)C1 [Example 82, N-((1s,3s)-3-((5-(5-methyl-1,3,4-oxadiazol-2-yl)-1H-pyrrolo[2,3-b]pyridin-4-yl)amino)cyclobutyl)propane-1-sulfonamide]	10 to 100 nM	> 1000 nM	10 to 100 nM	100 to 1000 nM	> 1000 nM	100 to 1000 nM	100 to 1000 nM
Cc1nccc(-c2cnc3[nH]ccc3c2N[C@H]2C[C@@H](NS(=O)(=O)c3cccc(C#N)c3)C2)n1 [Example 84, 3-cyano-N-((1s,3s)-3-((5-(2-methylpyrimidin-4-yl)-1H-pyrrolo[2,3-b]pyridin-4-yl)amino)cyclobutyl)benzenesulfonamide]	≤ 10 nM	100 to 1000 nM	≤ 10 nM	≤ 10 nM	> 1000 nM	≤ 100 nM	≤ 10 nM
Cc1nccc(-c2cnc3[nH]ccc3c2N[C@H]2C[C@@H](NS(=O)(=O)c3cc(C#N)ccn3)C2)n1 [Example 85, 4-cyano-N-((1s,3s)-3-((5-(2-methylpyrimidin-4-yl)-1H-pyrrolo[2,3-b]pyridin-4-yl)amino)cyclobutyl)pyridine-2-sulfonamide]	≤ 10 nM	100 to 1000 nM	≤ 10 nM	10 to 100 nM	> 1000 nM	100 to 1000 nM	10 to 100 nM

Results, then the molecule that gave them:

IC50 (JAK1)	IC50 [1]	IC50 (JAK2)	IC50 (JAK3 (a.a. 781-1124))	IC50 [2]	IC50 [3]	IC50 (Tyk-2)	SMILES
≤ 10 nM	100 to 1000 nM	≤ 10 nM	10 to 100 nM	> 1000 nM	100 to 1000 nM	10 to 100 nM	Cc1nnc(-c2cnc3[nH]ccc3c2N[C@H]2C[C@@H](NS(=O)(=O)CCCC#N)C2)s1 [Example 77, 3-cyano-N-((1s,3s)-3-((5-(5-methyl-1,3,4-thiadiazol-2-yl)-1H-pyrrolo[2,3-b]pyridin-4-yl)amino)cyclobutyl)propane-1-sulfonamide]
≤ 10 nM	100 to 1000 nM	≤ 10 nM	10 to 100 nM	> 1000 nM	≤ 100 nM	≤ 10 nM	N#Cc1cccc(S(=O)(=O)N[C@H]2C[C@@H](Nc3c(-c4nncs4)cnc4[nH]ccc34)C2)c1 [Example 78, N-((1s,3s)-3-((5-(1,3,4-thiadiazol-2-yl)-1H-pyrrolo[2,3-b]pyridin-4-yl)amino)cyclobutyl)-3-cyanobenzenesulfonamide]
